# The source made the active and inactive calls.
# What was measured:
# [1] = HepG2 cell cytotoxicity, dose response, cytotoxicity control for Shn3 inhibitor project, CellTiter-Glo, cherry-picked (AID 624134); type: functional, cell-based
# [2] = biological target: Nucleotide-binding oligomerization domain-containing protein 2 (Homo sapiens, UniProt Q9HC29); experiment: NOD2 signaling inhibitors, cell-based, luminescence, uHTS, HEK293 (AID 1566); type: functional
# [3] = biological target: Nucleotide-binding oligomerization domain-containing protein 1 (Homo sapiens, UniProt Q9Y239); experiment: NOD1 signaling inhibitors, SAR follow-up, revised (AID 2333); type: functional
# HEK293 [4] = experiment: cells; settings: Homo sapiens
# [5] = control 3'UTR Renilla luciferase suppression, dose response, counter-screen for Shn3 inhibitor project, cell-based, Clone20-Shn3RL, cherry-picked (AID 624133); type: functional
# HEK293 [6] = experiment: cells; type: functional, cell-based; settings: Homo sapiens
# HEK293 [7] = experiment: NOD2 signaling inhibitors in MDP-stimulated cells, cell-based, uHTS, luminescence (AID 2001); type: functional; settings: Homo sapiens
# [8] = biological target: T1, Microphthalmia-associated transcription factor (Homo sapiens, UniProt O75030); experiment: TRPM1 promoter luciferase signal decrease, dose response, MITF inhibitor project, cell-based, SK-MEL-5, cherry-picked, set 3 (AID 493073); type: functional
# T1 sequence (O75030 whole entry): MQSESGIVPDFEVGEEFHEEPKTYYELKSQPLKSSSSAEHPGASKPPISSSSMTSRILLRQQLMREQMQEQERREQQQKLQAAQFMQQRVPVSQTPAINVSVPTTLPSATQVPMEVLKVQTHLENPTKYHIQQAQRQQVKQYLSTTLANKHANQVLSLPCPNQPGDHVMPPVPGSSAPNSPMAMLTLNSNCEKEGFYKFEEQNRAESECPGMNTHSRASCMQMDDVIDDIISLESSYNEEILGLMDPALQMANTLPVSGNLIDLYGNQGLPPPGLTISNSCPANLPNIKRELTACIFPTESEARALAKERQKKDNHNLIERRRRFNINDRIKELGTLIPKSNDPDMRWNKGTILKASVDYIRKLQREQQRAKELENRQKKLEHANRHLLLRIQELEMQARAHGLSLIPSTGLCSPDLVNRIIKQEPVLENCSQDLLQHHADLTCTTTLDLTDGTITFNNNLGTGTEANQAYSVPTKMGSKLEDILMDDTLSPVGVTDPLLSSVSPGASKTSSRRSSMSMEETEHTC
# [9] = Shn3 3'UTR reporter inhibitors, dose response, cell-based, Clone20 osteoblasts, firefly luciferase, cherry-picked (AID 624132); type: functional;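 also: firefly luciferase luminescence from reporter carrying the Shn3 3'UTR in osteoblasts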
# HEK293 [10] = experiment: cells; type: functional, cell-based; settings: Homo sapiens; remark: listed apart in the source
# HEK293 [11] = experiment: NOD1 signaling inhibitors, primary screen, cell-based, luminescence, uHTS (AID 1578); type: functional; settings: Homo sapiens
# Tumor necrosis factor = Tumor necrosis factor (Homo sapiens, UniProt P01375); experiment: TNFa-triggered NF-kB activation inhibitors, SAR follow-up, cell-based, revised (AID 2337); type: functional
# HEK293 [12] = experiment: cells; type: functional, cell-based; settings: Homo sapiens; remark: listed apart in the source
# [13] = biological target: T2, Carboxy-terminal domain RNA polymerase II polypeptide A small phosphatase 1 (Homo sapiens, UniProt Q9GZU7); experiment: inhibitors of CTDSP1, concentration-response testing, biochemical assay, absorbance-based, actives from ultra-high-throughput screening (AID 540297); type: functional
# T2 sequence (Q9GZU7 whole entry): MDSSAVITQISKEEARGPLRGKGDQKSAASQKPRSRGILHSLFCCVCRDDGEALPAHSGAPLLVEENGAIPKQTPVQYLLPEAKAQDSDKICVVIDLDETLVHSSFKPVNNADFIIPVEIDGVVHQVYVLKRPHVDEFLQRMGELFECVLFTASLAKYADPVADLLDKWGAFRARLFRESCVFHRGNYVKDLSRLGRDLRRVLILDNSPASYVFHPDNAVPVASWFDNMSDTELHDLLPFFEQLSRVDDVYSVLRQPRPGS
# SUMO-activating enzyme [14] = biological target: T3, SUMO-activating enzyme (Homo sapiens, UniProt Q9UBT2); experiment: inhibitors of in vitro SUMOylation cascade, primary screen, biochemical, HTRF, uHTS (AID 2006); type: protein-complex assay
# SUMO-activating enzyme [15] = biological target: T3, SUMO-activating enzyme; experiment: SUMOylation inhibitor hit validation, confirmation, SUMOylation inhibitor project, biochemical, AlphaScreen (AID 2018); type: functional
# SUMO E1/E2 = SUMO E1/E2 (Homo sapiens, UniProt P63279+Q9UBE0+Q9UBT2); experiment: SAR analysis of SUMOylation using HTRF in an in-Vitro dose response assay. [Related pubchem assays (depositor defined):AID2006, AID2011, AID2018, AID2069, AID2658]; type: functional
# [16] = biological target: Lysine-specific demethylase 4C (Homo sapiens, UniProt Q9H3R0); experiment: GASC-1 (JMJD2C) histone demethylase inhibitors, dose response, biochemical, DELFIA europium, cherry-picked samples (AID 488835); type: functional
# [17] = cytotoxicity in HEK-293T NF-kB-Luc cells, dose response, cytotoxicity control for B/T-cell NF-kB inhibitor project, cell-based, uHTS hits (AID 489019); type: functional;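 also: IC50 reflects cytotoxicity as loss of cell viability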
# Jurkat = experiment: antigen receptor-induced NF-kB inhibitors, dose response, Jurkat, luciferase reporter, luminescence, B- and T-cell (AID 489004); type: functional, cell-based; settings: Homo sapiens;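 also: NF-kB luciferase reporter Jurkat cells stimulated with PMA plus ionomycin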
# [18] = biological target: Glyceraldehyde-3-phosphate dehydrogenase (Homo sapiens, UniProt P04406)
# Bcl-2-like protein 10 = biological target: T4, Bcl-2-like protein 10 (Homo sapiens, UniProt Q9HD36); experiment: displacers of TR3 peptide from Bcl-B, primary screen, selectivity assay for Bfl-1 inhibitor project, biochemical, fluorescence polarization, FITC-TR3 peptide (AID 748);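 also: fluorescence polarization from a fluorescein-labelled TR3 peptide binding purified Bcl-B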
# T4 sequence (Q9HD36 whole entry): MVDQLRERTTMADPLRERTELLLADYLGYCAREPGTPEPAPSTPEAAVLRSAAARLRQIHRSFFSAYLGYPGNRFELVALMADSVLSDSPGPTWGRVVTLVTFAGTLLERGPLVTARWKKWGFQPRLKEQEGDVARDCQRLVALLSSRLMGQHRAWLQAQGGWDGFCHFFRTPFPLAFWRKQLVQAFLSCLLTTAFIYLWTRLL
# [19] = biological target: Intestinal-type alkaline phosphatase (Homo sapiens, UniProt P09923); experiment: activation of human intestinal alkaline phosphatase – biochemical, dose response (AID 488873); type: functional
# [20] = biological target: T5, Alkaline phosphatase, tissue-nonspecific isozyme (Homo sapiens, UniProt P05186); experiment: human TNAP enzyme inhibitors, SAR follow-up, biochemical, luminescent, dose response (AID 1056)
# T5 sequence (P05186 whole entry): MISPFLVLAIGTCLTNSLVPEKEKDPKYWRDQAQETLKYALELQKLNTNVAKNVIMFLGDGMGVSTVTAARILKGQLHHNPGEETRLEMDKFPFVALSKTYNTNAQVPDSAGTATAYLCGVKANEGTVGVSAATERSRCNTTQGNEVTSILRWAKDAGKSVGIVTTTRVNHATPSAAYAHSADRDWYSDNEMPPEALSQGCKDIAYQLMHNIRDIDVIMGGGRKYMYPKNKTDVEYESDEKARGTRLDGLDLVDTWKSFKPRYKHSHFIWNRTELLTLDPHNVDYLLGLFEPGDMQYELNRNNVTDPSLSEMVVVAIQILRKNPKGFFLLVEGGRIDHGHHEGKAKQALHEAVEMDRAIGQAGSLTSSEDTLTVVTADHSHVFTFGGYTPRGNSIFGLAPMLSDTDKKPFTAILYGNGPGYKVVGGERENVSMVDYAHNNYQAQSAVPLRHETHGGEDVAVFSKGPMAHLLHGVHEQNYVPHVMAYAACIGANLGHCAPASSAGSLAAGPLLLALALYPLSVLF
# Estrogen receptor beta = Estrogen receptor beta (Homo sapiens, UniProt Q92731); experiment: ERβ–SRC-3 coactivator interaction inhibitors, confirmation, orthogonal assay, biochemical, ELISA, streptavidin-HRP readout (AID 1060)
# Leucine aminopeptidase = biological target: T6, Leucine aminopeptidase (Plasmodium falciparum 3D7, UniProt Q8IL11); experiment: P. falciparum M17LAP inhibitors, primary screen, biochemical, fluorogenic H-Leu-NHMec substrate, 1536-well (AID 1619); type: functional
# T6 sequence (Q8IL11 whole entry): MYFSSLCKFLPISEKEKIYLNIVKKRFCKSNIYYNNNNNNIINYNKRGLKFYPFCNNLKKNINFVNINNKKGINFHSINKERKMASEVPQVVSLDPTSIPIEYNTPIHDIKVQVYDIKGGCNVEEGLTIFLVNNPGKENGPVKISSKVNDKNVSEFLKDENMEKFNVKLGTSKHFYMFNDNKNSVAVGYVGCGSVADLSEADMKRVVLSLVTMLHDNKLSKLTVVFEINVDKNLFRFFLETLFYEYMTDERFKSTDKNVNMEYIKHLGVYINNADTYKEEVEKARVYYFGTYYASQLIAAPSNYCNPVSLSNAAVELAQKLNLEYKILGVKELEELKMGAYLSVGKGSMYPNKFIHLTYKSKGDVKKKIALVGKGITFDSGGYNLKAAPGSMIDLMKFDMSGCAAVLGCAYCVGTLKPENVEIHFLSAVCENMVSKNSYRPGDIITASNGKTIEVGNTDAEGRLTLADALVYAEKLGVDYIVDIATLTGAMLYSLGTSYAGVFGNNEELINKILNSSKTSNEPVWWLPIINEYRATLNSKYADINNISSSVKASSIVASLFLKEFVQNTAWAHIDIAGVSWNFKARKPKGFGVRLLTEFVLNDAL
# [21] = biological target: T5, Alkaline phosphatase, tissue-nonspecific isozyme; experiment: TNAP enzyme activators, dose response, selectivity assay for mouse IAP activator project, biochemical, TNAP isozyme, mouse IAP uHTS hits (AID 488880); type: functional
# Large T antigen = Large T antigen (Simian virus 40, UniProt P03070); type: functional, Betapolyomavirus macacae;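 also: Confirmatory-stage PubChem screen for compounds that inhibit SV40 T antigen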
# [22] = biological target: Intestinal-type alkaline phosphatase (Mus musculus, UniProt P24822); experiment: mouse intestinal alkaline phosphatase activators, dose response, biochemical, luminescence, uHTS hits (AID 488783); type: functional
# [23] = biological target: Alkaline phosphatase, placental type (Homo sapiens, UniProt P05187); experiment: PLAP enzyme inhibitors, confirmation, biochemical, luminescence (AID 1512); type: functional
# Chain of Alkaline phosphatase, placental type (P05187 whole entry): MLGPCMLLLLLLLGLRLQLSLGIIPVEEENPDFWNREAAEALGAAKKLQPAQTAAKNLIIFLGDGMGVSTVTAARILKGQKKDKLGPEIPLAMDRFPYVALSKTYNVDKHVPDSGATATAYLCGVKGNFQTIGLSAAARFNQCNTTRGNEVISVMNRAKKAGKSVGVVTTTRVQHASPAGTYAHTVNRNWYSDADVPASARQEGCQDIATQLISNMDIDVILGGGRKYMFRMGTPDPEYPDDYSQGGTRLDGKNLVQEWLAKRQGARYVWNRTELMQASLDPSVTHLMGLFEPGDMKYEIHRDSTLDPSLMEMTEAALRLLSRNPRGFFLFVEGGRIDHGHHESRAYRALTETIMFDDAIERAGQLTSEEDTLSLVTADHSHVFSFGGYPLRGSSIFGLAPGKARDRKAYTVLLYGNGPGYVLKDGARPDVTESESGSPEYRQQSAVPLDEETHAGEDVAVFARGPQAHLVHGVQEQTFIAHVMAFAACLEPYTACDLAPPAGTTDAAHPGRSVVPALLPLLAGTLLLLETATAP
# T3 sequence (Q9UBE0 whole entry): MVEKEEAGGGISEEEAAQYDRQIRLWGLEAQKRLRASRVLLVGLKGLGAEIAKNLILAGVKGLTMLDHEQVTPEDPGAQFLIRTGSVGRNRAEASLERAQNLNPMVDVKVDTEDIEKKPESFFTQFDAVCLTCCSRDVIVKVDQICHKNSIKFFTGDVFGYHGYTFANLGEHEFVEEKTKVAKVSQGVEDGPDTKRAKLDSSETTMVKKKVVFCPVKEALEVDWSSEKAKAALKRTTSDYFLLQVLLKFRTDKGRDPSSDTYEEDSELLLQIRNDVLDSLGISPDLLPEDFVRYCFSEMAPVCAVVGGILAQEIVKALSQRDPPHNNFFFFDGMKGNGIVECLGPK
# T3 sequence (Q9UBT2 whole entry): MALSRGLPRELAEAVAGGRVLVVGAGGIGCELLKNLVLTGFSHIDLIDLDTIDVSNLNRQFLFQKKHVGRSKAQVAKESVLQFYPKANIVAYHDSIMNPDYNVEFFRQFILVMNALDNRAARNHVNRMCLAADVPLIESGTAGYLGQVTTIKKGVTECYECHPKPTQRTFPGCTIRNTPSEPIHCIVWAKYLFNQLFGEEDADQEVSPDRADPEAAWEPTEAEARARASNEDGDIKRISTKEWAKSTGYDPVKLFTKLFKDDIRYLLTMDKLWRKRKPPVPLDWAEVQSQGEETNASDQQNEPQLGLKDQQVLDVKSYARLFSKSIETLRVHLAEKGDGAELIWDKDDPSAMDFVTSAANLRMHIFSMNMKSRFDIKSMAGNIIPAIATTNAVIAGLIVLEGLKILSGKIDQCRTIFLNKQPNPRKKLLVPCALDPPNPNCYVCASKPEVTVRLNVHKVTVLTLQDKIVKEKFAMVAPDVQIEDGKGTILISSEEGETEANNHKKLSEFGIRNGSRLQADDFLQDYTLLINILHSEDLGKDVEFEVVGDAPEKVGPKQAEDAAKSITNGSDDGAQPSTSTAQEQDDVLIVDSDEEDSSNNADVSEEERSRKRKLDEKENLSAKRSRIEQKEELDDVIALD
# Chain of Tumor necrosis factor (P01375 whole entry): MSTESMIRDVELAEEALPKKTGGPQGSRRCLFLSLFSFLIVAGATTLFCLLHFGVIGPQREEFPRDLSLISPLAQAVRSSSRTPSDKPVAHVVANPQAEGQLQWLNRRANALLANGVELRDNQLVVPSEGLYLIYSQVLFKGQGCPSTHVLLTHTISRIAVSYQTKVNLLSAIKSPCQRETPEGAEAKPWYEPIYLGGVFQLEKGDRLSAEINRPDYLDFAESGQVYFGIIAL
# Chain of Nucleotide-binding oligomerization domain-containing protein 1 (Q9Y239 whole entry, the tested form may be a part): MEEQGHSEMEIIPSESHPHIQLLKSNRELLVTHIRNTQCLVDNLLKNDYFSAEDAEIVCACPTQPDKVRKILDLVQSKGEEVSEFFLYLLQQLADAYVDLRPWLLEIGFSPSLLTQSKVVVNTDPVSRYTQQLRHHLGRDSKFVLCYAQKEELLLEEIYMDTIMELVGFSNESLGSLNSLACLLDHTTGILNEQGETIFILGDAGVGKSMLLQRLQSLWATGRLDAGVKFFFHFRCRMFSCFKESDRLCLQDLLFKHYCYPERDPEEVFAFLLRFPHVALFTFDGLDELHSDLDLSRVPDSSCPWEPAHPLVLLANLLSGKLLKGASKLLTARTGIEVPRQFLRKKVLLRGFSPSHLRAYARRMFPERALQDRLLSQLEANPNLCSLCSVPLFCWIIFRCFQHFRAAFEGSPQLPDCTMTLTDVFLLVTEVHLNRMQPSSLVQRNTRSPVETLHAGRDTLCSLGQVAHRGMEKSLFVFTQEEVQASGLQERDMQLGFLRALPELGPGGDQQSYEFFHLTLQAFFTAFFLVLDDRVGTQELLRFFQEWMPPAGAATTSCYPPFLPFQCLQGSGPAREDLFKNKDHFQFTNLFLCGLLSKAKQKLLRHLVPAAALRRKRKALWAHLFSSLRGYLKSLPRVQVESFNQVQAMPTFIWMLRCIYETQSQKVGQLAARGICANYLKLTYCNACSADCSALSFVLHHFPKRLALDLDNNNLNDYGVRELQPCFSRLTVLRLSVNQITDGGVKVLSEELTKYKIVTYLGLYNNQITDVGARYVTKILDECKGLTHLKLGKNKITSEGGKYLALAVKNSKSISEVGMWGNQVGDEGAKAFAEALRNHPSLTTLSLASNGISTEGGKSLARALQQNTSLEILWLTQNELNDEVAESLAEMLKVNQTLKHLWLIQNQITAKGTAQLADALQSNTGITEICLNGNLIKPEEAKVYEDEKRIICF
# Chain of Nucleotide-binding oligomerization domain-containing protein 2 (Q9HC29 whole entry, the tested form may be a part): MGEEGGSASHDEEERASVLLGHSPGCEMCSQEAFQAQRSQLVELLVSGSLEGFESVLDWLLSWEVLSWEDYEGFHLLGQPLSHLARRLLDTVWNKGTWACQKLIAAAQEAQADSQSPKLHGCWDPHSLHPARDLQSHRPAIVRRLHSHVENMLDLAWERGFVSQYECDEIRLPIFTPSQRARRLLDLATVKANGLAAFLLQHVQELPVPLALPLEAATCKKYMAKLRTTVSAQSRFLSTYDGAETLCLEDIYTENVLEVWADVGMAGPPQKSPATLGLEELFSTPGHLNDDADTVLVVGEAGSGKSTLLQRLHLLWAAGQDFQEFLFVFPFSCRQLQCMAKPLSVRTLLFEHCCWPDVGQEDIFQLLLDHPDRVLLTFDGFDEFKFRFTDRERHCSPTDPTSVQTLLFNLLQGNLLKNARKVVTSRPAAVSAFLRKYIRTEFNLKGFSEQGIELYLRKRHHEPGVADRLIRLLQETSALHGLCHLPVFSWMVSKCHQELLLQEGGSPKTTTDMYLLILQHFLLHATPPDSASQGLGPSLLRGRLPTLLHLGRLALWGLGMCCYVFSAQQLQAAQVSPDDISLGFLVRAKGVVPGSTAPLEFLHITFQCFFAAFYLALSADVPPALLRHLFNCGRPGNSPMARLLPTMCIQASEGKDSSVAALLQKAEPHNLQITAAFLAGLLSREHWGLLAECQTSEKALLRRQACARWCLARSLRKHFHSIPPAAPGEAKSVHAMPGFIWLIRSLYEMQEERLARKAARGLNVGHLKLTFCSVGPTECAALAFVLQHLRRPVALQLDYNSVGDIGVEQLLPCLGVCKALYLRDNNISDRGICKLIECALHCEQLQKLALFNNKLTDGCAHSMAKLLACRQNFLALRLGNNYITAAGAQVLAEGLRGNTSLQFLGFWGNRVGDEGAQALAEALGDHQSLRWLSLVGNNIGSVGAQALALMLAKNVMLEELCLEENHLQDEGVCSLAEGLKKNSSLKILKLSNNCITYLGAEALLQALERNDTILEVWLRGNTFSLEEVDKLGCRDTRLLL
# Chain of Lysine-specific demethylase 4C (Q9H3R0 whole entry): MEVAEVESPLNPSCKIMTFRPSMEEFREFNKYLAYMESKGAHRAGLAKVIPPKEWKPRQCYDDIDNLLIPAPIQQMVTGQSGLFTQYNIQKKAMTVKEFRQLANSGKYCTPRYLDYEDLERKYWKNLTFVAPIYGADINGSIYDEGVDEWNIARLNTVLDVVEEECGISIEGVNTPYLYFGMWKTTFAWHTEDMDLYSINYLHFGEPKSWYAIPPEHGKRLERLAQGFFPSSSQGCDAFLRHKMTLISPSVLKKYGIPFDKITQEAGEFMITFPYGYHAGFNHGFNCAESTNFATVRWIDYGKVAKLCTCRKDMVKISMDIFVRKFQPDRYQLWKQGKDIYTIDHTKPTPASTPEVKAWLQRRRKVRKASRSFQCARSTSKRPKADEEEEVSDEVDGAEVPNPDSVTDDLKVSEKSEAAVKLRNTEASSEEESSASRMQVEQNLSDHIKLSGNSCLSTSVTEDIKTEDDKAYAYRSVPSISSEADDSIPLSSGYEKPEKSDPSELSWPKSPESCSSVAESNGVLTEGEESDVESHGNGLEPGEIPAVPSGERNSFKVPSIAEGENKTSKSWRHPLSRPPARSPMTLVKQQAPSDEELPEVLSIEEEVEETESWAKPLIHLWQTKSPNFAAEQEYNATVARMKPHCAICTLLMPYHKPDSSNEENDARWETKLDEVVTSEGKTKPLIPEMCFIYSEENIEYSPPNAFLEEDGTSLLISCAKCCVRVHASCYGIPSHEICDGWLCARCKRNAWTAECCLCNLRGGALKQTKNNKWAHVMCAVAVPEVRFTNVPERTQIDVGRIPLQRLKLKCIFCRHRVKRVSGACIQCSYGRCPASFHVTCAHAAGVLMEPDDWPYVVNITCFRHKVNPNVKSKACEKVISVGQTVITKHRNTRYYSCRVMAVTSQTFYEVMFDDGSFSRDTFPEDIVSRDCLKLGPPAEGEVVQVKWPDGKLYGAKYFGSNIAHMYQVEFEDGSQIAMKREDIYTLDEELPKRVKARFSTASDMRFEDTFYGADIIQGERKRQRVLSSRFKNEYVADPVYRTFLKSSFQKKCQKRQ
smiles,measurement,setting,value
CCOC(=O)N1CCN(C(=O)c2ccc(Cn3c(=S)[nH]c4ccc(Br)cc4c3=O)cc2)CC1,AC50,[1],> 70 µM (inactive)
same,EC50,[2],4.18 µM (active)
same,IC50,[3],4.77 µM (active)
same,IC50,HEK293 [4],18.7 µM (active)
same,AC50,[5],0.793 µM (active)
same,IC50,HEK293 [6],> 20 µM (inactive)
same,IC50,HEK293 [7],6.26 µM (active)
same,AC50,[8],3.52 µM (active)
same,AC50,[9],1.25 µM (active)
same,IC50,HEK293 [10],> 20 µM (inactive)
same,EC50,HEK293 [11],4.23 µM (active)
same,IC50,Tumor necrosis factor,4.69 µM (active)
same,IC50,HEK293 [12],9.03 µM (active)
O=C(N=Nc1c(O)[nH]c2ccc([N+](=O)[O-])cc12)c1ccccc1Cl,IC50,[13],6.44 µM (active)
same,IC50,SUMO-activating enzyme [14],20.4 µM (active)
same,IC50,SUMO-activating enzyme [15],7.02 µM (active)
same,IC50,SUMO E1/E2,94.4 µM (active)
O=C1NC(=O)C(C(CC(=O)c2ccccc2)c2ccccc2)C(=O)N1 (stereo not given),AC50,[16],7.62 µM (active)
CC(C)Cc1cc(C(C)(C)C)ccc1OC(=S)N(C)C,IC50,[17],> 80 µM (inactive)
same,IC50,Jurkat,> 80 µM (inactive)
O=C(CSc1nnc(-c2ccccc2)[nH]1)c1ccc(O)c(O)c1,IC50,[18],> 100 µM (not active)
same,IC50,Bcl-2-like protein 10,31.5 µM (active)
same,EC50,[19],42.4 µM (active)
same,IC50,[20],5.9 µM (active)
same,IC50,Estrogen receptor beta,15.6 µM (not active)
same,IC50,Leucine aminopeptidase,8.31 µM (active)
same,EC50,[21],36.4 µM (active)
same,IC50,Large T antigen,15.2 µM (active)
same,EC50,[22],63.4 µM (active)
same,IC50,[23],11.4 µM (active)

# Source: ChEMBL document CHEMBL1201862, “PubChem BioAssay data set” (2004)
